Experimental data published in ChEMBL document CHEMBL1201862, “PubChem BioAssay data set” (2004).
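Step 1: Grow cells in 96-well plates. Step 2: Expose to compound for 48 hours at 5 concentrations. Step 3: Interpolate endpoints linearly; if unreached, use highest concentration. Here, GI50 denotes the concentration required for 50% inhibition of growth.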 Activity calls are given as the source filed them. Rule as the data show it: active = GI50 up to about 1.1 µM and inactive = higher.

Columns and labels:
Experiment in all cases: NCI anticancer screen, dose series, 48 h
[1] = test system: DU-145
[2] = test system: HT-29
[3] = test system: NCI-H226
[4] = test system: HCC 2998
[5] = test system: A498
[6] = test system: MDA-MB-435
[7] = test system: A549
[8] = test system: Hs-578T
[9] = test system: HCT-15
[10] = test system: SF-295
[11] = test system: MDA-N
[12] = test system: 786-0
[13] = test system: OVCAR-8
[14] = test system: NCI/ADR-RES
[15] = test system: IGROV-1
[16] = test system: NCI-H23
[17] = test system: U-251
[18] = test system: MDA-MB-231
[19] = test system: TK-10
[20] = test system: HCT-116
[21] = test system: OVCAR-5
[22] = test system: SK-MEL-2
[23] = test system: LOX IMVI
[24] = test system: OVCAR-4
[25] = test system: Malme-3M
[26] = test system: SF-539
[27] = test system: ACHN
[28] = test system: SK-OV-3
[29] = test system: T47D
[30] = test system: SN12C
[31] = test system: M14
[32] = test system: OVCAR-3
[33] = test system: UO-31
[34] = test system: UACC-257
[35] = test system: BT-549
[36] = test system: SK-MEL-5
[37] = test system: KM12
[38] = test system: CCRF-CEM
[39] = test system: CAKI-1
[40] = test system: K562
[41] = test system: UACC-62
[42] = test system: HL-60
[43] = test system: HOP-92
[44] = test system: RPMI-8226
[45] = test system: NCI-H522
[46] = test system: HOP-62
[47] = test system: MCF7
[48] = test system: RXF 393
[49] = test system: SR
[50] = test system: SNB-75
[51] = test system: MOLT-4
[52] = test system: SF-268
[53] = test system: SNB-19
[54] = test system: NCI-H460
[55] = test system: SW-620
[56] = test system: EKVX
[57] = test system: PC-3
[58] = test system: COLO 205
[59] = test system: SK-MEL-28

`O=C(O)CN1CCNCCN(CC(=O)O)CCNCC1` was tested, and the GI50 [1] was > 100 µM (inactive), the GI50 [2] was 13.5 µM (inactive) and the GI50 [3] was > 64.7 µM (inactive). For the same molecule, the GI50 [4] was > 82.2 µM (inactive), the GI50 [5] was 50 µM (inactive) and the GI50 [6] was 33 µM (inactive). The GI50 [7] was 5.57 µM (inactive), the GI50 [8] was > 24.1 µM (inactive) and the GI50 [9] was 9.29 µM. The GI50 [10] was > 87.7 µM (inactive), the GI50 [11] was 10.9 µM (inactive) and the GI50 [12] was > 42.2 µM (inactive). For the same molecule, the GI50 [13] was 42.3 µM (inactive), the GI50 [14] was > 100 µM (inactive) and the GI50 [15] was 24.3 µM (inactive). For the same molecule, the GI50 [16] was 44.4 µM (inactive), the GI50 [17] was 9.06 µM (inactive) and the GI50 [18] was > 100 µM (inactive). The GI50 [19] was > 100 µM (inactive), the GI50 [20] was 4.75 µM (inactive) and the GI50 [21] was > 85.1 µM (inactive). For the same molecule, the GI50 [22] was > 100 µM (inactive), the GI50 [23] was 79.4 µM (inactive) and the GI50 [24] was > 100 µM (inactive). For the same molecule, the GI50 [25] was 56.9 µM (inactive), the GI50 [26] was > 100 µM (inactive) and the GI50 [27] was > 100 µM (inactive). For the same molecule, the GI50 [28] was 20.1 µM (inactive), the GI50 [29] was > 48.2 µM (inactive) and the GI50 [30] was > 100 µM (inactive). The GI50 [31] was > 100 µM (inactive), the GI50 [32] was > 100 µM (inactive) and the GI50 [33] was > 100 µM (inactive). The GI50 [34] was > 73.3 µM (inactive), the GI50 [35] was > 85.5 µM (inactive) and the GI50 [36] was 5.28 µM (inactive). The GI50 [37] was 5.75 µM (inactive), the GI50 [38] was 4.8 µM (inactive) and the GI50 [39] was > 100 µM (inactive). For the same molecule, the GI50 [40] was 3.85 µM (inactive), the GI50 [41] was 38.8 µM (inactive) and the GI50 [42] was 3.41 µM (inactive). The GI50 [43] was 82.4 µM (inactive), the GI50 [44] was 6.31 µM (inactive) and the GI50 [45] was 14.7 µM (inactive). The GI50 [46] was > 100 µM (inactive), the GI50 [47] was 28.2 µM (inactive) and the GI50 [48] was > 100 µM (inactive). The GI50 [49] was 5.14 µM (inactive), the GI50 [50] was > 21.5 µM (inactive) and the GI50 [51] was 5.14 µM (inactive). The GI50 [52] was > 100 µM (inactive), the GI50 [53] was > 100 µM (inactive) and the GI50 [54] was 8.49 µM (inactive). The GI50 [55] was 4.2 µM (inactive), the GI50 [56] was > 60.3 µM (inactive) and the GI50 [57] was 19.9 µM (inactive). The GI50 [58] was 6.64 µM (inactive).

For `N#Cc1ccnc(C(=O)N2CCCC2C(=O)O)c1` (stereo unspecified), the GI50 [1] was > 100 µM (inactive), the GI50 [2] was > 100 µM (inactive) and the GI50 [3] was > 100 µM (inactive). For the same molecule, the GI50 [4] was > 100 µM (inactive), the GI50 [5] was > 100 µM (inactive) and the GI50 [6] was > 100 µM (inactive). For the same molecule, the GI50 [7] was > 100 µM (inactive), the GI50 [8] was > 100 µM (inactive) and the GI50 [9] was greater than 100 µM. The GI50 [10] was > 100 µM (inactive), the GI50 [11] was > 100 µM (inactive) and the GI50 [12] was > 100 µM (inactive). For the same molecule, the GI50 [13] was > 100 µM (inactive), the GI50 [14] was > 100 µM (inactive) and the GI50 [15] was > 100 µM (inactive). The GI50 [16] was > 100 µM (inactive), the GI50 [17] was > 100 µM (inactive) and the GI50 [18] was > 100 µM (inactive). The GI50 [19] was > 100 µM (inactive), the GI50 [20] was > 100 µM (inactive) and the GI50 [21] was > 100 µM (inactive). The GI50 [22] was > 100 µM (inactive), the GI50 [23] was > 100 µM (inactive) and the GI50 [24] was > 100 µM (inactive). For the same molecule, the GI50 [25] was > 100 µM (inactive), the GI50 [26] was > 100 µM (inactive) and the GI50 [27] was > 100 µM (inactive). The GI50 [29] was > 100 µM (inactive), the GI50 [30] was > 100 µM (inactive) and the GI50 [31] was > 100 µM (inactive). For the same molecule, the GI50 [32] was > 100 µM (inactive), the GI50 [33] was > 100 µM (inactive) and the GI50 [34] was > 100 µM (inactive). The GI50 [35] was > 100 µM (inactive), the GI50 [36] was > 100 µM (inactive) and the GI50 [37] was > 100 µM (inactive). The GI50 [38] was > 100 µM (inactive), the GI50 [39] was > 100 µM (inactive) and the GI50 [40] was > 82.8 µM (inactive). The GI50 [41] was > 100 µM (inactive), the GI50 [42] was > 100 µM (inactive) and the GI50 [43] was > 100 µM (inactive). For the same molecule, the GI50 [44] was > 100 µM (inactive), the GI50 [59] was > 100 µM (inactive) and the GI50 [45] was > 100 µM (inactive). For the same molecule, the GI50 [46] was > 100 µM (inactive), the GI50 [47] was > 100 µM (inactive) and the GI50 [48] was > 100 µM (inactive). The GI50 [49] was > 100 µM (inactive), the GI50 [50] was > 100 µM (inactive) and the GI50 [51] was > 100 µM (inactive). The GI50 [52] was > 100 µM (inactive), the GI50 [53] was > 100 µM (inactive) and the GI50 [54] was > 100 µM (inactive). The GI50 [55] was > 100 µM (inactive), the GI50 [56] was > 100 µM (inactive) and the GI50 [57] was > 100 µM (inactive). For the same molecule, the GI50 [58] was > 100 µM (inactive).
